We go through 2 molecules from patent publication US20230330229A1, “METHODS FOR IMAGE-GUIDED RADIOTHERAPY” (UNIVERSITE CLAUDE BERNARD LYON 1, priority 2020, published 2023).

In one series the test system is brain metastases. The series can be described thus: MRI signal enhancement in brain metastases (Nano-Rad phase I-b trial, 3 Tesla, 3D T1-weighted). The class given is in vivo, human. Conditions: D0, 15 min after injection, 0.1 mmol/kg i.v., metastases >1 cm. From the text: This study is part of a prospective dose escalation phase I-b clinical trial to evaluate the tolerance of the intravenous administration of radiosensitizing AGuIX nanoparticles in combination with whole brain radiotherapy for the treatment of brain metastases. The Nano-Rad trial (Radiosensitization of Multiple Brain Metastases Using AGuIX Gadolinium Based Nanoparticles) was registered as NCT02820454. Here, we report the findings of the MRI protocol applied to the 15 recruited patients. […]
MRI analyses were performed using an in-house computer program called MP3 (https://github.com/nifm-gin/MP3) developed by the GIN Laboratory (Grenoble, France) and running under Matlab® software. Image analyses include counting and measurements of metastases, quantification of contrast enhancement, relaxation times and concentration of nanoparticles. […] The MRI enhancement, expressed in percentage, was defined as the ratio of the MRI signal amplitude post contrast agent administration over the MRI signal amplitude pre contrast agent administration; the MRI signal amplitude being measured in the 3D T1-weighted image dataset. […]

The conditions of series [1]: magnetic field of 3 Tesla, literature reference; cited from earlier work.
Series [2] can be described thus: Detection of solutions in Eppendorf by MRIdian MR-linac at 0.35 T. The conditions noted are these: spin echo, solutions in PPI water. The procedure: ViewRay Linac MRI displaying magnetic field of 0.35 T (MRIdian MR-linac, ViewRay Inc., Oakwood, USA) (S. Klüter, Clinical and Translational Radiation Oncology, 2019), samples with different concentrations in gadolinium were tested and compared to Multihance (Bracco) using the Torso coil (two surface flexible 6-channel coils array).
The ViewRay MRIdian system is clinically used for external radiotherapy purpose, thus it is a very appropriate device dedicated to the use of the AGuIX. A 2D coronal spin echo sequence was used: TR=400 ms, TE=20 ms, Flip Angle=90°, Bandwidth=57. Hz/Px, Matrix=512×512, Slice Thickness=3 mm, Field Of View=350×350×263 mm, Number of Averages=5. The total acquisition time was 12:30 minutes.
Solutions of multihance and AGuIX were prepared by dilution in PPI water from stock solutions of 0.5 mol·L^−1 and 100 g·L^−1 respectively 1 hour before imaging and placed in Eppendorf.

For the molecule `CNC[C@H](O)[C@@H](O)[C@H](O)[C@H](O)CO.O=C([O-])CN1CCN(CC(=O)[O-])CCN(CC(=O)O)CCN(CC(=O)[O-])CC1.[Gd+3]` [Dotarem, gadoterate meglumine], in the series with brain metastases, the “MRI enhancement averaged over all measurable metastases” value worked out at 182.9±116.2%. The “r1 per Gd^3+ ion” value in series [1] is 3.5 mM⁻¹ s⁻¹.
As to `O=C([O-])CN(CCN(CC(=O)[O-])CC(=O)[O-])CCN(CC(=O)[O-])C(COCc1ccccc1)C(=O)[O-].[Gd+3].[H+].[H+]` (stereo not drawn) [Multihance, gadobenic acid], the “Detection sensitivity (lowest detected [Gd^3+])” value in series [2] worked out at 25 µM.
